Inhibition and IC50 data for five compounds are collected here from patent publication US8883778B2, “Cyclic inhibitors of 11 beta-hydroxysteroid dehydrogenase 1” (Vitae Pharmaceuticals, Inc., priority 2009, dated 2014).

The structures appear in SMILES notation.

The target in assay [1] is T1, 11β-HSD1 (Homo sapiens, UniProt P28845). The assay can be described thus: Inhibition of a microsomal preparation of 11β-HSD1, scintillation proximity assay. The format is biochemical. Also on record: expressed in transfected cells; host or cells: CHO cells (microsomes). The conditions noted are these: microsomes from CHO cells overexpressing human 11β-HSD1; for inhibition at 0.1 µM: at 100 nM. As for the experimental part: All reactions were carried out at rt in 96 well clear flexible PET Microbeta plates (PerkinElmer). […] After a 10 minute pre-incubation, 50 μL of enzyme solution containing microsomes isolated from CHO cells overexpressing human 11β-HSD1 (10-20 μg/ml of total protein) was added, and the plates were incubated for 90 minutes at rt. The reaction was stopped by adding 50 μl of the SPA beads suspension containing 10 μM 18β-glycyrrhetinic acid, 5 mg/ml protein A coated YSi SPA beads (GE Healthcare) and 3.3 μg/ml of anti-cortisol antibody (East Coast Biologics) in Superblock buffer (Bio-Rad). The plates were shaken for 120 minutes at rt, and the SPA signal corresponding to [^3H]cortisol was measured on a Microbeta plate reader.
T1 sequence (P28845 whole entry): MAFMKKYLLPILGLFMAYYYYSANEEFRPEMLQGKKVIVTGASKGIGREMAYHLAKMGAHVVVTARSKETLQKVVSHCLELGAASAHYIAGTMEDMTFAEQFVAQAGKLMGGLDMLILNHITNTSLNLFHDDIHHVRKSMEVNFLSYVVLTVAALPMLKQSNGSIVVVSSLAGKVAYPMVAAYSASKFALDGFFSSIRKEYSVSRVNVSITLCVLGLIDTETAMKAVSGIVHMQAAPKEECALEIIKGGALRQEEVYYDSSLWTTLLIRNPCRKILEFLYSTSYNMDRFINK

The target in assay [2] is T1, 11β-HSD1. The assay can be described thus: In vitro inhibition of 11β-HSD1 with HTRF technology, cortisol generated by human liver microsomes. The assay is classed as biochemical. Also noted: detecting cortisol generated from cortisterone by human liver microsomes; from tissue; host or cells: human liver microsomes. The conditions noted are these: 1 hour at 37° C., cortisone 80 nM. How it is done: Briefly, compounds were incubated for 1 hour at 37° C. in Tris buffer (20 mM tris, 5 mM EDTA, pH 6.0) containing NADPH (200 μM) and cortisone (80 nM). Cortisol generated in the reaction is then detected with a competitive immunoassay, involving two HTRF conjugates: cortisol linked to XL665 and anti-cortisol antibody labeled with Europium cryptate. The incubation period for detection reaction was typically 2 hours. The amount of cortisol was determined by reading the time-resolved fluorescence of the wells (Ex 320/75 nm; Em 615/8.5 nm and 665/7.5 nm). The ratio of the two emission signals was then calculated (Em665*10000/Em615). […] Each assay also contained a calibration curve with cortisol to transform the fluorescent data into cortisol concentrations. Percent inhibition of each compound was determined relative to the carbenoxolone signal.

As to `COC(=O)OC1(C#Cc2ccc([C@H](C)N3CC[C@](CC(C)(C)O)(c4ccccc4)OC3=O)cc2)CN(C(=O)OC)C1` [Example 27, Methyl 3-((4-((S)-1-((S)-6-(2-hydroxy-2-methylpropyl)-2-oxo-6-phenyl-1,3-oxazinan-3-yl)ethyl)phenyl)ethynyl)-3-(methoxycarbonyloxy)azetidine-1-carboxylate], at 11β-HSD1 [1], the inhibition at 0.1 µM was 95.8% and the IC50 is 2.4 nM.

Turning to `COc1cc(C#Cc2ccc([C@H](C)N3CC[C@](CC(C)(C)O)(c4ccccc4)OC3=O)cc2)ccn1` [Example 28, (S)-6-(2-hydroxy-2-methylpropyl)-3-((S)-1-(4-((2-methoxypyridin-4-yl)ethynyl)phenyl)ethyl)-6-phenyl-1,3-oxazinan-2-one], at 11β-HSD1 [1], the inhibition at 0.1 µM came out at 103% and half-maximal inhibition (IC50) required 1.7 nM. Regarding `C[C@@H](c1ccc(C#Cc2cc[nH]c(=O)c2)cc1)N1CC[C@](CC(C)(C)O)(c2ccccc2)OC1=O` [Example 29, (S)-6-(2-hydroxy-2-methylpropyl)-3-((S)-1-(4-((2-oxo-1,2-dihydropyridin-4-yl)ethynyl)phenyl)ethyl)-6-phenyl-1,3-oxazinan-2-one], at 11β-HSD1 [1], the inhibition at 0.1 µM was found to be 97.9% and the IC50 is 1.4 nM. In turn, `C[C@@H](c1ccc(C#Cc2ccn(C)c(=O)c2)cc1)N1CC[C@](CC(C)(C)O)(c2ccccc2)OC1=O` [Example 30, (S)-6-(2-Hydroxy-2-methyl-propyl)-3-{(S)-1-[4-(1-methyl-2-oxo-1,2-dihydro-pyridin-4-ylethynyl)-phenyl]ethyl}-6-phenyl-[1,3]oxazinan-2-one] had an IC50 against 11β-HSD1 [2] of 29 nM. Same read-out and setting: then `C[C@@H](c1ccc(C#Cc2ccc(=O)n(C)c2)cc1)N1CC[C@](CC(C)(C)O)(c2ccccc2)OC1=O` [Example 31, (S)-6-(2-Hydroxy-2-methyl-propyl)-3-{(S)-1-[4-(1-methyl-6-oxo-1,6-dihydro-pyridin-3-ylethynyl)-phenyl]ethyl}-6-phenyl-[1,3]oxazinan-2-one], with 30 nM.
